Test results published in patent publication US6403575B1, “3-Pyridyl enantiomers and their use as analgesics” (Abbott Laboratories, priority 1996, dated 2002).
Entries after “also recorded” stand apart in the source; their conditions may differ. Structures can show the parent of a compound that is named as a salt.

Legend:
[1] = target: neuromuscular junction nicotinic acetylcholine receptor (Tetronarce californica, UniProt P02710+P02714+P02718); test: biochemical; format: binding, Torpedo Californica
rats [2] = test: Carrageenan paw edema model; format: in vivo; conditions: rat, i.p.
rats [3] = test: Chung Model of Neuropathic Pain following repeated dosing; format: in vivo; conditions: rat
Procedure: Animals were surgically prepared as described above for the Chung model. For assessment of each test compound, two treatment groups (6 animals each) were established. One group was injected (i.p.) with test compound twice daily for 5 days, and the other group was injected on the same schedule with saline. Responses to von Frey hairs were assessed as described above both before, and 15 minutes after, injection on the first 2 days and also on the 5th day. The saline-treatment group was given saline for the first 4 days and on the morning of the 5th day, but received a challenge of the test compound in the afternoon of the fifth day.

mice [4] = conditions: mouse, in vivo, ip
Procedure: Compounds were co-mixed in a syringe, and co-administered via the intraperitoneal route 30 min prior to testing in the mouse hot-plate paradigm as indicated above. Separate groups of animals (n=7-8/group) were used for each dose group.

rats [5] = test: Chung Model of Neuropathic Pain; format: in vivo; conditions: rat, 50% threshold to VonFrey hairs
rats [6] = test: Formalin Model of Persistent Pain; format: in vivo; conditions: rat, oral, 0.1-0.3 umol/kg, 15 minutes prior to formalin, second phase
[7] = target: T1, peripheral ganglionic receptors (Homo sapiens, UniProt P30926+P32297); test: 86Rb+ flux activation in IMR-32 human neuroblastoma cells; format: cell-based; conditions: 1 μM compound, % of maximum response to (S)-nicotine
T1 construct: Cells of the IMR-32 human neuroblastoma clonal cell line (ATCC, Rockville, Md.); host or cells: IMR-32 human neuroblastoma cells

mice [8] = test: Mouse Hot Plate Paradigm; format: in vivo; conditions: ip, 0.5 h, i.p., 30 minutes prior to testing, 55° C., read-out: MED Hot plate model (μmol/kg, i.p.)
[9] = target: T2, neuronal nicotinic acetylcholine receptors (Rattus norvegicus, UniProt P09483+P12390); test: [3H]-cytisine binding to neuronal nicotinic acetylcholine receptors, whole rat brain membranes; conditions: [3H]-cytisine 1.25 nM, whole rat brain membranes; read-out: [3H] CYT Ki
T2 construct: crude synaptic membrane preparations from whole rat brain; from tissue; host or cells: whole rat brain, crude synaptic membranes
Summary of the method: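 Crude synaptic membranes from whole rat brain (125-150 μg protein) incubated with test compound and 1.25 nM [3H]-cytisine for 60 min at 4 °C in Tris-Cl buffer pH 7.4 with Na/K/Mg/Ca salts. Filtration through PEI-soaked filters; nonspecific binding with 10 μM (−)-nicotine; values as percentage of total binding.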

rat spinal cord cultures = test: Neuroprotection against substance P or glutamate toxicity in primary spinal cord cultures (LDH release); format: cell-based; conditions: rat spinal cord cultures

Sequence of neuromuscular junction nicotinic acetylcholine receptor (P02714 18-506): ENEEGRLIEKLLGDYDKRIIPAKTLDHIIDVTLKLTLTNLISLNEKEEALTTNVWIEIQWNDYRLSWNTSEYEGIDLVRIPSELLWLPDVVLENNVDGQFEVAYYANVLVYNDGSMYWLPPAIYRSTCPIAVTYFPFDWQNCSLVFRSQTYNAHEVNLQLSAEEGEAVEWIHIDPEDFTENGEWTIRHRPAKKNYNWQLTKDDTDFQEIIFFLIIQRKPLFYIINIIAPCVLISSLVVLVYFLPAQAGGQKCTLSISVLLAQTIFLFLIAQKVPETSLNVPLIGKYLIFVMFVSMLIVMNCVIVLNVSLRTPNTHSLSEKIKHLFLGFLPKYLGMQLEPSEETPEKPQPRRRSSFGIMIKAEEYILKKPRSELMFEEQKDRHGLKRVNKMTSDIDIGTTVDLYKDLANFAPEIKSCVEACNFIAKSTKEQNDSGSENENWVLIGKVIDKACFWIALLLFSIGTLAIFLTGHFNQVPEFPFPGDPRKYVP
Sequence of neuromuscular junction nicotinic acetylcholine receptor (P02710 25-461): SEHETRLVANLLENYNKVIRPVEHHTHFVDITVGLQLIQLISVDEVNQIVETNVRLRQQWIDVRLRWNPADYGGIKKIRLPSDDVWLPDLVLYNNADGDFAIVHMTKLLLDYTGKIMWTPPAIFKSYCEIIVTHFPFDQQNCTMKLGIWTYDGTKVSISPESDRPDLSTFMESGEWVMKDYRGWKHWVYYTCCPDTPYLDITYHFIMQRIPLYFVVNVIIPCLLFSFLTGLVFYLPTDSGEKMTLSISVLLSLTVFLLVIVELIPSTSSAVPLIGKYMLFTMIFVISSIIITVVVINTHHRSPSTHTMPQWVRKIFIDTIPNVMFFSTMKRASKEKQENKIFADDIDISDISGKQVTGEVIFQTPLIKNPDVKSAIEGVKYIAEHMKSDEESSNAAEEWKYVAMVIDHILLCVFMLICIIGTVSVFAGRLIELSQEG
Sequence of neuromuscular junction nicotinic acetylcholine receptor (P02712 25-493, further chain): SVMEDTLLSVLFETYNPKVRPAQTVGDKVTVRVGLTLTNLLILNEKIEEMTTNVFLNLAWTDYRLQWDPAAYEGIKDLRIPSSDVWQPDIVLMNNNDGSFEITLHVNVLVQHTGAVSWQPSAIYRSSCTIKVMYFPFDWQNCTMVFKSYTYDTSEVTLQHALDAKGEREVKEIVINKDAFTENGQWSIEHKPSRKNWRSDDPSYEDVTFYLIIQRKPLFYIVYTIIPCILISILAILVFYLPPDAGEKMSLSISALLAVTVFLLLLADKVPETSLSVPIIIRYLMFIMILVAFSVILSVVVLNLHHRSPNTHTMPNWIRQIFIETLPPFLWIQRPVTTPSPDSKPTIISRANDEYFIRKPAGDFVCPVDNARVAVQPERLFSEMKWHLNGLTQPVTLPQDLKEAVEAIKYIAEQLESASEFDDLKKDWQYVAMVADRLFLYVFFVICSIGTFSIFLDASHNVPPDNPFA
Sequence of neuromuscular junction nicotinic acetylcholine receptor (P02718 22-522): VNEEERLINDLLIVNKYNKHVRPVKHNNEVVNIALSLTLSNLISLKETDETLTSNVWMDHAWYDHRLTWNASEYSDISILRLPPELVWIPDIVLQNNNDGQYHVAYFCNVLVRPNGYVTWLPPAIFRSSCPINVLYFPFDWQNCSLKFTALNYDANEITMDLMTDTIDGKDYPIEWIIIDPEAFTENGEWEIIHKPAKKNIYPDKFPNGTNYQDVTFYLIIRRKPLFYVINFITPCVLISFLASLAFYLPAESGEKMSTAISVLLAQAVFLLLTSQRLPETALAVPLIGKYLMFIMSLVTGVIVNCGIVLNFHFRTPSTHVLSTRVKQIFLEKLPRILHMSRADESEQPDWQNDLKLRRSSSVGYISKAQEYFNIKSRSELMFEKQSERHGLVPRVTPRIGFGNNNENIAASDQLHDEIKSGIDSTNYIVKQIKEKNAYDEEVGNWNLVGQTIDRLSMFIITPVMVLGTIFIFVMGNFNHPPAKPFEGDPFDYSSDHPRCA
T1 sequence (P32297 32-505): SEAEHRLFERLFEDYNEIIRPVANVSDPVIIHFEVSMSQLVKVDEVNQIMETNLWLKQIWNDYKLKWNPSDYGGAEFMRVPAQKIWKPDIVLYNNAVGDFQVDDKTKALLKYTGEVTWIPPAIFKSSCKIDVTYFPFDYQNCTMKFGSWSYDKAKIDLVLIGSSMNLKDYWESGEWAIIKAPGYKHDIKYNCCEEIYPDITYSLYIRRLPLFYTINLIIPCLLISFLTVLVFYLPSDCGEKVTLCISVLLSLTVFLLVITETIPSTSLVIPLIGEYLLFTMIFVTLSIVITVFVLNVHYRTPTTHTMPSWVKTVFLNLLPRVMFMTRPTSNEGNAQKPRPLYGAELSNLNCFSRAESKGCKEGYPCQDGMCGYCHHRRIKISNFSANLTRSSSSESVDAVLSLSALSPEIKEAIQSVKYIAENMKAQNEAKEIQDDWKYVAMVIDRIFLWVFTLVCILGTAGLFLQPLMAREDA
T1 sequence (P30926 22-498): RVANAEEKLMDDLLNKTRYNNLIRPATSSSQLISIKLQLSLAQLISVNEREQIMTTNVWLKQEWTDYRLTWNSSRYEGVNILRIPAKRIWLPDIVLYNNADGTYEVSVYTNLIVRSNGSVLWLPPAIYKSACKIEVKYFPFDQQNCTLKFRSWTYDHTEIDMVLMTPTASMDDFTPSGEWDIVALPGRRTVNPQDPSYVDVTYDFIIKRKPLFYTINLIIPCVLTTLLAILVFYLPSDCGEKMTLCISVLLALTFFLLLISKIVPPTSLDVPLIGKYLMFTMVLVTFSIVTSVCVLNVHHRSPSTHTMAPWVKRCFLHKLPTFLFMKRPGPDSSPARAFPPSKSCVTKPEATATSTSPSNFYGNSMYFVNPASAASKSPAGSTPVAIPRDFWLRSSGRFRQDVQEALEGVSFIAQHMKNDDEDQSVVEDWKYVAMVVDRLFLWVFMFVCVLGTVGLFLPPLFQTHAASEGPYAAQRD
T2 sequence (P09483 31-630): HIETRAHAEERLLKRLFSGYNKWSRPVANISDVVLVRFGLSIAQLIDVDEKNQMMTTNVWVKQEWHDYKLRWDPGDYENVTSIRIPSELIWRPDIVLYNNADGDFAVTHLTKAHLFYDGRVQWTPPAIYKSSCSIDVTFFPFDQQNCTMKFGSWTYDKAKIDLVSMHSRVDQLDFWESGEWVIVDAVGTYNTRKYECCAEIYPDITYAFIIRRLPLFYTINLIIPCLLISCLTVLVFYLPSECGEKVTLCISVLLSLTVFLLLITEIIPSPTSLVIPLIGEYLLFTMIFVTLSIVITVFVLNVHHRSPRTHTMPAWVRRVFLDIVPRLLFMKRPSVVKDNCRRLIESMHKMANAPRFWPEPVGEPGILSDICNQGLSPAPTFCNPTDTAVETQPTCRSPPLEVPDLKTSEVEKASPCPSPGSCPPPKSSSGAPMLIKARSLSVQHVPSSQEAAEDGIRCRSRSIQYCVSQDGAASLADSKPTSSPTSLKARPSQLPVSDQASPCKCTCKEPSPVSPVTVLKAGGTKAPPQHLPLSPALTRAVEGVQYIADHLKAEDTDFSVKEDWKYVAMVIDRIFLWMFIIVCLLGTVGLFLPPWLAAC
T2 sequence (P12390 25-500): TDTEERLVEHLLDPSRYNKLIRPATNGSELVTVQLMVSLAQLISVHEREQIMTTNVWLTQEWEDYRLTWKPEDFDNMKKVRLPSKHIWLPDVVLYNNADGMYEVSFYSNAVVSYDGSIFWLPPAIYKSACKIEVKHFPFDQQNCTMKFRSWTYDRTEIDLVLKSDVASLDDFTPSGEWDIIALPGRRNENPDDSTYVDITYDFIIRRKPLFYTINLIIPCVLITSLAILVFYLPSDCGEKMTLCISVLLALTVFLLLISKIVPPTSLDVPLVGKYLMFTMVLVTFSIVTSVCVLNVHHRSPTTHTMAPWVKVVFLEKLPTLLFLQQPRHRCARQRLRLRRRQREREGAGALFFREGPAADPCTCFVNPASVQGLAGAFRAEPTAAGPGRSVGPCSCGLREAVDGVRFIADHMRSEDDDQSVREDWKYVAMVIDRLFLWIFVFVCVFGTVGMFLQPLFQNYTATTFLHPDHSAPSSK

Clc1ccc(OC[C@H]2CCN2)cn1 [Example 4, 5-((2R)-Azetidinylmethyloxy)-2-chloropyridine hydrochloride]
Ki [1]: 16.6 µM | reduced affinity for the neuromuscular junction nicotinic acetylcholine receptor [1]: 12.8 fold | ED30 reduction of carrageenan-induced paw edema (rats [2]): 0.21 µmol/kg | efficacy to reduce paw edema compared with dexamethasone (rats [2]; hydrochloride): as effective as dexamethansone; also recorded: as efficacious as dexamethasone | anti-allodynic effects during each test session (rats [3]; 0.3 μmol/kg, i.p., b.i.d., 5 days): Significant anti-allodynic effects | anti-allodynic effect following repeated dosing (rats [3]; in vivo, ip): does not decrease following repeated dosing | antinociceptive activity combined with effective doses of morphine (mice [4]): enhanced antinociceptive activity | antinociceptive activity combined with subthreshold doses of morphine (mice [4]): can produce effective antinociceptive activity | antinociceptive effects when coadministered with morphine (mice [4]): produced effective antinociceptive effects | MED Chung model (μmol/kg, i.p.) (rats [5]): 0.3 µmol/kg | antinociceptive effects in the Formalin Model (rats [6]): produced significant antinociceptive effects | IMR-32 % maximal nicotine response at 1 μM Cmpd conc'n [7]: 97% | minimal effective dose (mice [8]): 0.62 µmol/kg | Ki [9]: 0.05 nM | protection against SP- and Glu-induced neurotoxicity (rat spinal cord cultures; SP 30 μM or Glu 300 μM, hydrochloride): protects against SP-induced neurotoxicity; also recorded: reduces both SP and Glu-induced neurotoxicity | EC50 (rat spinal cord cultures; SP and Glu-induced neurotoxicity): 10 µM
